Assay results published in ChEMBL document CHEMBL3272257, “Clonidine and related analogues. Quantitative correlations” (J Med Chem, 1976).

What was measured:
Rattus norvegicus [1] = species: Rattus norvegicus; assay: Hypotensive activity in rat assessed as change in mean blood pressure relative to control; format: functional; design: concentration or dose not given beside the values
Rattus norvegicus [2] = assay: Peripheral adrenergic activity in iv dosed pithed rat assessed as change in mean blood pressure; format: functional
[3] = Dissociation constant, pKa of the compound in water-ethyl alcohol; format: physicochemical
[4] = Octan-1-ol-aqueous buffer partition coefficient, log P of the compound at 10 to 20 mg at pH 7.4 by UV-spectroscopic analysis; format: physicochemical
[5] = Retardation factor, deltaRm of the compound at pH 13 by TLC analysis; format: physicochemical
Rattus norvegicus [6] = assay: Toxicity in iv dosed pithed rat; format: organism-based; conditions: in vivo

## Cc1cccc(C)c1N=C1NCCN1
Rattus norvegicus [1]
  Activity: <10%
Rattus norvegicus [2]
  pD2: 7.74
[3]
  pKa: 10.5
[4]
  logD: -1.65
[5]
  deltaRm: 0.42

## c1ccc(NC2=NCCN2)cc1
Rattus norvegicus [1]
  Activity: <10%
Rattus norvegicus [2]
  pD2: 5.84
[3]
  pKa: 10.4
[4]
  logD: -1.8
[5]
  deltaRm: 0

## Clc1cc(Cl)c(N=C2NCCN2)c(Cl)c1
Rattus norvegicus [1]
  Activity: 15%
Rattus norvegicus [2]
  pD2: 7.13
[3]
  pKa: 7.6
[5]
  deltaRm: 1

## Cc1cc(C)c(N=C2NCCN2)c(C)c1
Rattus norvegicus [2]
  pD2: 7.8

## Brc1cccc(Br)c1N=C1NCCN1
Rattus norvegicus [1]
  Activity: 15%
Rattus norvegicus [2]
  pD2: 7.28
[3]
  pKa: 7.95
[4]
  logD: 1.15
[5]
  deltaRm: 0.61

## CCc1cccc(CC)c1NC1=NCCN1
Rattus norvegicus [1]
  Activity: >10%
Rattus norvegicus [2]
  pD2: 7.61
[3]
  pKa: 10.6
[4]
  logD: -0.84
[5]
  deltaRm: 0.95

## Fc1cccc(F)c1N=C1NCCN1
Rattus norvegicus [1]
  Activity: <10%
Rattus norvegicus [2]
  pD2: 7.23
[3]
  pKa: 8.4
[4]
  logD: 0.02
[5]
  deltaRm: 0.24

## Clc1cc(Cl)c(N=C2NCCN2)cc1Cl
[3]
  pKa: 7.7
[4]
  logD: 1.63
[5]
  deltaRm: 1.2

## CC(C)c1cccc(C(C)C)c1N=C1NCCN1
Rattus norvegicus [1]
  Activity: <10%
Rattus norvegicus [2]
  pD2: 5.79
[3]
  pKa: 10.7
[4]
  logD: -0.21
[5]
  deltaRm: 1.32

## COc1cc(C)ccc1N=C1NCCN1
Rattus norvegicus [1]
  Activity: <10%
Rattus norvegicus [2]
  pD2: 6.58
[3]
  pKa: 10.6
[4]
  logD: -1.56
[5]
  deltaRm: -0.03

## Cc1ccc(Cl)cc1N=C1NCCN1
Rattus norvegicus [1]
  Activity: <10%
Rattus norvegicus [2]
  pD2: 7.64
[3]
  pKa: 9.5
[4]
  logD: -0.3
[5]
  deltaRm: 0.72

## COc1ccc(OC)c(N=C2NCCN2)c1
Rattus norvegicus [1]
  Activity: <10%
Rattus norvegicus [2]
  pD2: 6.98
[3]
  pKa: 10.2
[4]
  logD: -1.78
[5]
  deltaRm: -0.42

## Brc1ccc(N=C2NCCN2)cc1
Rattus norvegicus [1]
  Activity: <10%
Rattus norvegicus [2]
  pD2: 6.09
[3]
  pKa: 9.65
[4]
  logD: -0.5
[5]
  deltaRm: 0.58

## COc1cc(OC)c(N=C2NCCN2)cc1Cl
Rattus norvegicus [1]
  Activity: <10%
Rattus norvegicus [2]
  pD2: 6.68
[3]
  pKa: 10.2
[4]
  logD: -1.37
[5]
  deltaRm: -0.07

## CCc1ccccc1N=C1NCCN1
Rattus norvegicus [2]
  pD2: 7.55

## COc1cc(C)c(N=C2NCCN2)c(C)c1
Rattus norvegicus [6]
  LD50: 54 µM

## Cc1cc(O)cc(C)c1N=C1NCCN1
Rattus norvegicus [2]
  pD2: 7.51

## FC(F)(F)c1ccccc1N=C1NCCN1
Rattus norvegicus [1]
  Activity: <10%
Rattus norvegicus [2]
  pD2: 6.13
[3]
  pKa: 8.8
[4]
  logD: 0

## Oc1cc(Cl)c(N=C2NCCN2)c(Cl)c1
Rattus norvegicus [1]
  Activity: <10%
Rattus norvegicus [2]
  pD2: 7.37
[3]
  pKa: 7.95
[4]
  logD: -0.4

## Cc1cc(Cl)ccc1N=C1NCCN1
Rattus norvegicus [1]
  Activity: <10%
Rattus norvegicus [2]
  pD2: 7.11
[3]
  pKa: 9.75
[4]
  logD: -0.58
[5]
  deltaRm: 0.75

## Cc1cccc(Cl)c1N=C1NCCN1
Rattus norvegicus [1]
  Activity: 15%
Rattus norvegicus [2]
  pD2: 7.74
[3]
  pKa: 9.2
[4]
  logD: -0.4
[5]
  deltaRm: 0.45

## Cc1ccc(N=C2NCCN2)c(C)c1
Rattus norvegicus [1]
  Activity: >10%
Rattus norvegicus [2]
  pD2: 7.74
[3]
  pKa: 10.7
[4]
  logD: -1.46
[5]
  deltaRm: 0.43

## Clc1ccc(Cl)c(N=C2NCCN2)c1
Rattus norvegicus [1]
  Activity: <10%
Rattus norvegicus [2]
  pD2: 7.65
[3]
  pKa: 8
[4]
  logD: 0.95
[5]
  deltaRm: 0.71

## Clc1ccc(N=C2NCCN2)c(Cl)c1
Rattus norvegicus [1]
  Activity: 15%
Rattus norvegicus [2]
  pD2: 6.71
[3]
  pKa: 8.65
[4]
  logD: 0.69
[5]
  deltaRm: 0.76

## Clc1cccc(Cl)c1NC1=NCCN1 [CLONIDINE]
Rattus norvegicus [1]
  Activity: 15%
Rattus norvegicus [2]
  pD2: 7.66
[3]
  pKa: 8.05
[4]
  logD: 0.83
[5]
  deltaRm: 0.38

## Cc1ccc(NC2=NCCN2)c(Cl)c1 [TOLONIDINE]
Rattus norvegicus [1]
  Activity: 15%
Rattus norvegicus [2]
  pD2: 7.08
[3]
  pKa: 9.55
[4]
  logD: -0.28
